From patent US6589971B1, “Bis-benzazoles and their use as antineoplastic agents” (The Queens University of Belfast, priority 1999, dated 2003)
Several values for one entry are separate records, joined by “and”; a condition that tells them apart may be missing. Equal values may be shown once.

Legend:
[1] = system: A2780; experiment: Cytotoxicity (growth inhibition), 96 hour exposure, ovarian cell line panel; conditions: read-out: Cytotoxicity IC50, A2780
Description: (§1) Assessment of growth inhibition was performed in a small panel of (e.g.) human ovarian carcinoma cell lines using the Sulforhodamine B (SRB assay) (Kelland et al, Cancer Research 54, 5618-5622 (1994). The cell lines grew as monolayers in Dulbecco's Modified Eagle's medium containing 10% foetal bovine serum (Imperial Laboratories, Andover, UK) supplemented with 2 mM glutamine and 0.5 μg/ml hydrocortisone in 6% CO2/94% air. The compound to be tested was dissolved in 10% dimethylsulfoxide. Cells were seeded into 96-well microtitre plates at 3000-5000 per well and allowed to attach overnight. Serial dilutions of drug in growth medium were then added to quadruplicate wells (with 8 control untreated wells) and left to incubate under normal growth conditions for 96 hr, unless otherwise stated. The medium was then removed and wells fixed with 10% trichloroacetic acid and stained with 0.4% SRB in 1% acetic acid as described previously (Kelland et al ref). Basic amino acid content in each well was then measured by solubilizing the bound SRB with 10 mM Tris and using a Titertek Multiscan MCC/340 MKII plate reader set at 540 nm. Mean absorbance was then expressed as a percentage of the control untreated well absorbance and plotted vs drug concentration. Comparisons were made in terms of IC50 values, (the concentration that reduced the mean absorbance to 50% of those in control wells) and Resistance Factors (RF, the IC50 in a resistant subline vs its parent line).

[2] = system: CH1; experiment: as above; conditions: read-out: Cytotoxicity IC50, CH1
Description: as §1

[3] = system: A/T sites of a natural DNA fragment; experiment: DNase I footprinting with a natural DNA fragment; format: binding; conditions: for DNA site preference: natural DNA fragment
Source text: The ability of the head-to-head bis-benzimidazoles to discriminate between the 136 possible tetranucleotide sequences may be further enhanced by flanking sequence preferences. These remain to be systematically explored.

[4] = system: SKOV-3; experiment: Cytotoxicity (growth inhibition), 96 hour exposure, ovarian cell line panel; conditions: read-out: Cytotoxicity IC50, SKOV-3, SKOV-3 ovarian cell line
Description: as §1

[5] = system: A2780-PT^R; experiment: as above; conditions: read-out: Cytotoxicity IC50, A2780-PT^R
Description: as §1

[6] = system: ovarian lines in the NCI 60-cell line panel; experiment: NCI 60-cell line panel; format: cell-based; conditions: several ovarian lines
[7] = system: transcription at A/T sites; experiment: In vitro transcription assay; format: biochemical
Source text: Compound (13) has been examined in an in vitro transcription assay. […] In addition, compound (13) inhibited transcription at least 10-fold more efficiently than compound (9), consistent with its increased cytoxicity. It is thus tempting to speculate that the activity of (13) in vitro and in vivo may be related to its potent ability to inhibit transcription specifically at a small sub-set of A/T sites.

[8] = system: MCF-7 (breast); experiment: Growth inhibition, carcinoma cell lines (MTT assay or cell counting); format: cell-based; conditions: 96 hour exposure, repeat determinations
Description: Compounds 8 and 13 were then tested more extensively against a range of carcinoma cell lines: MCF-7 (breast,); RKO and H630 (colon); A2780 and OAW42 (ovary) and H838 (lung).
Figures in bold were determined using cell counting method, all other values by the MTT assay.
The growth inhibition assays reported above were carried out using standard techniques, some examples of which are detailed below.

[9] = system: ovarian carcinoma cell lines; experiment: Cytotoxicity across the group of four ovarian carcinoma cell lines; format: cell-based, human; conditions: versus compounds 8 and 9; in three out of the four lines
Description: Assessment of growth inhibition was performed in a small panel of (e.g.) human ovarian carcinoma cell lines using the Sulforhodamine B (SRB assay) (Kelland et al, Cancer Research 54, 5618-5622 (1994). The cell lines grew as monolayers in Dulbecco's Modified Eagle's medium containing 10% foetal bovine serum (Imperial Laboratories, Andover, UK) supplemented with 2 mM glutamine and 0.5 μg/ml hydrocortisone in 6% CO2/94% air. The compound to be tested was dissolved in 10% dimethylsulfoxide. Cells were seeded into 96-well microtitre plates at 3000-5000 per well and allowed to attach overnight. Serial dilutions of drug in growth medium were then added to quadruplicate wells (with 8 control untreated wells) and left to incubate under normal growth conditions for 96 hr, unless otherwise stated. The medium was then removed and wells fixed with 10% trichloroacetic acid and stained with 0.4% SRB in 1% acetic acid as described previously (Kelland et al ref). Basic amino acid content in each well was then measured by solubilizing the bound SRB with 10 mM Tris and using a Titertek Multiscan MCC/340 MKII plate reader set at 540 nm. Mean absorbance was then expressed as a percentage of the control untreated well absorbance and plotted vs drug concentration. […]

SMILES	IC50 [1]	IC50 [2]	DNA site preference [3]	IC50 [4]	IC50 [5]	affinity for 5′-TATA sites ([3]; 5′-TATA sites)	Kd ([3]; quantitative DNase I footprinting, 5′-AATT site, read-out: affinity for the 5′-AATT site)	binding to AT-sites, fold better than compound (9) ([3]; relative to compound (9))	activity in ovarian lines of NCI 60-cell line panel [6]	inhibition of transcription ([7]; at a number of A/T sites)	inhibition of transcription, fold more efficient than compound (9) ([7]; relative to compound (9))	IC50 [8]	cytotoxic activity, fold more active than the others [9]
Oc1ccc(-c2nc3cc(-c4ccc5[nH]c(-c6ccc(O)cc6)nc5c4)ccc3[nH]2)cc1 [Compound 9, 4′,4′-[5,5-bi-1H-Benzimidazole]-2,2-diylbis-phenol]	4.3 µM	1050 nM	interact preferentially with some A/T sites	16 µM	2700 nM								
CN(C)CCCOc1ccc(-c2nc3cc(-c4ccc5[nH]c(-c6ccc(OCCCN(C)C)cc6)nc5c4)ccc3[nH]2)cc1 [Compound 13, 2,2-bis-[4′-(3″-Dimethylamino-1″-propyloxy)phenyl]-5,5-bi-1H-benzimidazole]	0.235 µM	240 nM	interact preferentially with some A/T sites	0.375 µM	115 nM	relatively low affinity	30 nM	7-10 fold	significant activity	effectively inhibits transcription at a number of A/T sites	at least 10 fold	43 nM and 69 nM	over 10 fold
CN1CCN(c2ccc3[nH]c(-c4ccc5[nH]c(-c6ccc(O)cc6)nc5c4)nc3c2)CC1 [Hoechst 33258, reference compound]	12 µM	26500 nM		> 100 µM	9500 nM								
